In patent US20230142542A1, “USE OF SUBSTITUTED 1,2,4-OXADIAZOLES FOR COMBATING PHYTOPATHOGENIC FUNGI” (BASF SE, priority 2020, published 2023):

O=C(O)C(F)(F)c1ccc(-c2noc(C(F)(F)F)n2)cc1 [I-2, 2,2-difluoro-2-[4-[5-(trifluoromethyl)-1,2,4-oxadiazol-3-yl]phenyl]acetic acid]
melting point: 119 to 121 °C
